{"source": "patent US20210220355A1", "about": "“ANTITUMOR AGENT FOR ACUTE MYELOID LEUKEMIA” (FUJIFILM Corporation, priority 2018, published 2021)", "key": {"FLT3 phosphorylation": {"test_system": "FLT3 phosphorylation", "assay": "plasma inhibitory activity (PIA) test on patient plasma samples", "type": "cell-based, human", "procedure": "For 7 patients (patients 1 to 7) who were repeatedly administered with 10 mg of Compound A1 one time a day or 20 mg one time a day in a clinical test involving patients with acute myeloid leukemia, in-plasma concentrations of Compound A1 were measured before administration and after 4 hours after the administration on day 1, day 8, day 15, and day 22 of the first cycle (one cycle is 28 days) and on day 1 of the second cycle, and on the end day of the administration of Compound A1. In addition, a plasma inhibitory activity (PIA) test (Blood, 2006, Vol. 108, p 3477 to 3483) was carried out using plasma samples from the same patients at the same time points. A graph showing a correlation between the in-plasma concentrations and the PIA test results is shown FIG. 1. In FIG. 1, open circles, open rectangles, open triangles, filled circles, filled triangles, filled rectangles, and cross symbols indicate the results of patients 1 to 7, respectively."}, "[1]": {"test_system": "patients with acute myeloid leukemia", "assay": "clinical test, repeated QD administration to patients with acute myeloid leukemia (side effects)", "type": "in vivo, human", "settings": "AML patients, 10 mg or 20 mg one time a day"}, "acute myeloid leukemia": {"test_system": "acute myeloid leukemia", "assay": "BID administration test in a patient with acute myeloid leukemia (bone marrow examination)", "type": "in vivo, human", "settings": "one AML patient, 75 mg BID before a meal, day 29 of administration; 55% before administration", "procedure": "A patient with acute myeloid leukemia is subjected to the BID administration of Compound A of 25 to 225 mg per administration before having a meal two times a day. A preferred effect (for example, a decrease in the proportion of blast cells in the bone marrow, or a curing effect equal to or higher than PR) is confirmed. The specific doses per administration are 50 mg, 75 mg, 100 mg, or 150 mg. Patients have received chemotherapy with cytarabine, daunorubicin, idarubicin, and the like as preliminary curing, and some patients have not reached CR, CRi, CRp, or PR by preliminary curing. The curing effect is determined by the following criteria. The bone marrow puncture sample is evaluated and determined according to the following criteria. Complete Response (CR): a state in which […], and the neutrophil count and the platelet count are respectively 1,000 counts/μL or more and 100,000 counts/μL or more. Complete Response with incomplete platelet recovery ([…]): a state in which myeloblasts are 5% or less and the neutrophil count is 1,000 counts/μL or more, but the platelet count is 100,000 counts/μL or less. Complete Response with incomplete hematological recovery (CRi): a state in which myeloblasts are 5% or less and there is no blood transfusion dependency, but the neutrophil count is 1,000 counts/μL or less. […]"}, "[2]": {"test_system": "FLT3-ITD+D698N-expressing 32D cell", "assay": "inhibitory effect on proliferation of mutant FLT3-expressing 32D cell (intracellular ATP level)", "type": "cell-based", "settings": "for pIC50: 32D, 72 h, Mutation type FLT3-ITD + D698N, day 3, ATP level, read-out: Effect determination (IC50 value class), proliferation", "procedure": "(§1) 32D cell line expressing FLT3 gene mutations (FLT3-ITD+D698N, +N676T) found according to the random mutagenesis analysis method was cultured for a predetermined period of time (setting: 37° C. and 5% CO2, steam saturated), and then the cells were plated on a 384-well plate at a cell concentration of 299 cells/well. The random mutagenesis analysis method was carried out according to the following reference document.\n(§2) Each of the test substances was dissolved in dimethyl sulfoxide (DMSO) to prepare a DMSO solution containing 20 mmol/L of the test substance. After serially diluting with DMSO and further diluting with a medium containing 10% serum, each of the test substance solutions having a concentration 10 times the final treatment concentration was prepared. […] In addition, a group (a positive control group) in which only DMSO containing no test substance was added to a well in which cells were plated and a group (a negative control group) in which only DMSO containing no test substance was added to a well in which only the medium was added were prepared. On day 3 after adding the test substance solution, the intracellular ATP level was measured with “Cell” ATP Assay reagent Ver. 2 (manufactured by TOYO B-Net Co., Ltd.) to evaluate cell viability.\n(§3) The suppression rate was determined by assuming that the amount of luminescence signal in the negative control group corresponded to the suppression of cell viability by 100% and the amount of luminescence signal in the positive control group corresponded to the suppression of cell viability by 0%. […] 3 (manufactured by ITOCHU Techno-Solutions Corporation)."}, "[3]": {"test_system": "FLT3-ITD+N676T-expressing 32D cell", "assay": "inhibitory effect on proliferation of mutant FLT3-expressing 32D cell (intracellular ATP level)", "type": "cell-based", "settings": "for pIC50: 32D, 72 h, Mutation type FLT3-ITD + N676T, day 3, ATP level, read-out: Effect determination (IC50 value class), proliferation", "procedure": "as §1, §2, §3"}, "[4]": {"test_system": "FLT3-ITD-expressing 32D cell", "assay": "inhibitory effect on proliferation of mutant FLT3-expressing 32D cell (intracellular ATP level)", "type": "cell-based", "settings": "72 h, Mutation type FLT3-ITD, day 3, ATP level, read-out: Effect determination (IC50 value class), proliferation", "procedure": "as §1, §2, §3"}}, "note": "pIC50: −log10 of the molar value."}
{"smiles": "CCCNc1nc(Nc2ccc(C#N)cc2)ncc1C#CCCCNC(=O)[C@H](C)N(C)C(=O)/C=C/CN(C)C", "note": "[Compound A1, (S,E)-N-(1-((5-(2-((4-cyanophenyl)amino)-4-(propylamino)pyrimidin-5-yl)-4-pentyn-1-yl)amino)-1-oxopropan-2-yl)-4-(dimethylamino)-N-methyl-2-butenamide]", "values": [{"measurement": "in-plasma concentration at which the phosphorylation inhibition rate reaches 100%", "setting": "FLT3 phosphorylation; based on the regression line of FIG. 1, 7 AML patients given 10 mg or 20 mg one time a day", "result": "exceeds 30 ng/mL"}, {"measurement": "in-plasma concentration required to exhibit a remarkable FLT3 phosphorylation inhibition rate", "setting": "FLT3 phosphorylation; concluded from PIA test results of FIG. 1", "result": "≥ 40", "unit": "ng/mL"}, {"measurement": "serious side effects", "setting": "[1]", "result": "No serious side effects were observed"}, {"measurement": "proportion of blast cells in the bone marrow", "setting": "acute myeloid leukemia", "result": 18, "unit": "%"}, {"measurement": "pIC50", "setting": "[2]", "result": "9.00 to 9.30"}, {"measurement": "inhibitory effect on proliferation, in words", "setting": "[2]; FLT3-ITD+D698N-expressing 32D cell, compared with FLT3-ITD-expressing 32D cell", "result": "strong inhibitory effect"}, {"measurement": "pIC50", "setting": "[3]", "result": "9.00 to 9.30"}, {"measurement": "inhibitory effect on proliferation, in words", "setting": "[3]; FLT3-ITD+N676T-expressing 32D cell", "result": "strong inhibitory effect"}, {"measurement": "pIC50", "setting": "[4]", "result": "9.30 to 10.00"}]}
{"smiles": "CCc1nc(C(N)=O)c(Nc2ccc(N3CCC(N4CCN(C)CC4)CC3)c(OC)c2)nc1NC1CCOCC1", "note": "[Gilteritinib, 6-ethyl-3-[3-methoxy-4-[4-(4-methylpiperazin-1-yl)piperidin-1-yl]anilino]-5-(oxan-4-ylamino) pyrazine-2-carboxamide, reference compound]", "values": [{"measurement": "pIC50", "setting": "[2]", "result": "7.30 to 8.00"}, {"measurement": "pIC50", "setting": "[3]", "result": "8.00 to 8.30"}, {"measurement": "pIC50", "setting": "[4]", "result": "8.30 to 9.00"}]}
